Measurements published in the supplement of paper PMC10307832.

Columns and labels:
Experiment in all cases: relative viability (nuclei count vs DMSO), 5 days (fraction); higher = more cells survive
[1] = compound: C1CSC2=C(C(=O)N1)SC3=C2C=C(C=C3)O [kb NB 142-70] + O=C(c1cc(Cc2n[nH]c(=O)c3ccccc23)ccc1F)N1CCN(C(=O)C2CC2)CC1 [Olaparib] (partner 8 µM)
Outline: (§1)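 Relative viability equals treated-well nuclei counts divided by vehicle-well nuclei counts. Counts came from 4× images of lung cancer cell lines grown in 1536-well plates for 5 days after pin-tool dosing on the day after seeding. Dosing used one drug alone or a fixed anchor-drug dose plus five library-drug doses (not always all listed) in √10 steps, and values are medians of duplicate plates.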

[2] = compound: C1CSC2=C(C(=O)N1)SC3=C2C=C(C=C3)O [kb NB 142-70] + CC(C)C[C@H](NC(=O)[C@H](Cc1ccccc1)NC(=O)c1cnccn1)B(O)O [Bortezomib] (partner 0.002 µM)
Outline: as §1

[3] = compound: NCC(=O)Nc1ccc(-n2nc(C(F)(F)F)cc2-c2ccc3c(ccc4ccccc43)c2)cc1 + NC(=O)Nc1cc(-c2cccc(F)c2)sc1C(=O)N[C@H]1CCCNC1 [AZD7762] (partner 0.2 µM)
Outline: as §1

[4] = compound: C1CSC2=C(C(=O)N1)SC3=C2C=C(C=C3)O [kb NB 142-70] + CCNC(=O)c1noc(-c2cc(C(C)C)c(O)cc2O)c1-c1ccc(CN2CCOCC2)cc1 [Luminespib] (partner 0.01 µM)
Outline: as §1

[5] = compound: NCC(=O)Nc1ccc(-n2nc(C(F)(F)F)cc2-c2ccc3c(ccc4ccccc43)c2)cc1 + CS(=O)(=O)N1CCN(Cc2cc3nc(-c4cccc5[nH]ncc45)nc(N4CCOCC4)c3s2)CC1 [Pictilisib] (partner 1 µM)
Outline: as §1

Cell Line | relative viability ([1]; first compound 0.1 µM) | relative viability ([1]; first compound 1 µM) | relative viability ([1]; first compound 3.162 µM) | relative viability ([2]; first compound 0.1 µM) | relative viability ([2]; first compound 1 µM) | relative viability ([2]; first compound 3.162 µM) | relative viability ([3]; first compound 0.02 µM) | relative viability ([3]; first compound 0.06325 µM) | relative viability ([3]; first compound 0.2 µM) | relative viability ([3]; first compound 0.6325 µM) | relative viability ([3]; first compound 2 µM) | relative viability ([4]; first compound 0.1 µM) | relative viability ([4]; first compound 1 µM) | relative viability ([4]; first compound 3.162 µM) | relative viability ([5]; first compound 0.02 µM) | relative viability ([5]; first compound 0.06325 µM) | relative viability ([5]; first compound 0.2 µM) | relative viability ([5]; first compound 0.6325 µM) | relative viability ([5]; first compound 2 µM)
NCI-H1993 | 1.04 | 0.911 | 1.04 | 1.14 | 1.07 | 1.17 | 0.957 | 0.933 | 0.706 | 0.839 | 0.784 | 1.03 | 0.858 | 0.673 | 0.759 | 0.773 | 0.738 | 0.838 | 0.861
NCI-H647 | 0.549 | 0.495 | 0.539 | 0.987 | 0.773 | 1.06 | 0.384 | 0.39 | 0.524 | 0.431 | 0.527 | 0.177 | 0.184 | 0.11 |  | 0.479 | 0.548 | 0.406 | 0.496
NCI-H1792 | 0.406 | 0.547 | 0.619 | 0.992 | 0.988 | 1.01 | 0.725 | 0.772 | 0.759 | 0.822 | 0.682 | 0.429 | 0.582 | 0.553 | 0.244 | 0.319 | 0.277 | 0.315 | 0.344
ChaGo-K-1 | 0.489 | 0.361 | 0.362 | 1.06 | 1.1 | 0.951 | 0.81 | 0.869 | 0.807 | 0.913 | 0.897 | 0.664 | 0.638 | 0.448 | 0.617 | 0.784 | 0.394 | 0.676 | 1.04
LOU-NH91 | 0.879 | 0.917 | 0.552 | 0.467 | 0.431 | 0.353 | 0.799 | 0.783 | 0.784 | 0.804 | 0.795 | 0.312 | 0.316 | 0.286 | 0.497 | 0.622 | 0.49 | 0.476 | 0.537
NCI-H2405 | 0.824 | 0.895 | 0.723 | 0.969 | 0.993 | 1.01 | 0.725 | 0.781 | 0.774 | 0.728 | 0.718 | 0.733 | 0.728 | 0.523 | 0.415 | 0.494 | 0.499 | 0.375 | 0.481
LCLC-97TM1 | 0.404 | 0.371 | 0.198 | 0.853 | 0.563 | 0.123 | 0.284 | 0.253 | 0.28 | 0.39 | 0.159 | 0.72 | 0.76 | 0.692 | 0.29 | 0.215 |  | 0.178 | 0.187
NCI-H596 | 0.658 | 0.579 | 0.788 | 1 | 1.07 | 0.954 | 1.14 | 1.03 | 0.984 | 1.28 | 1.08 | 0.945 | 1.11 | 0.876 | 0.412 | 0.458 | 0.425 | 0.404 | 0.407
NCI-H727 | 0.743 | 0.592 | 0.68 | 0.897 | 1.1 | 1.02 | 0.531 | 0.53 | 0.58 | 0.696 | 0.599 | 0.226 | 0.346 | 0.42 | 0.427 | 0.45 | 0.406 | 0.362 | 0.533
H3255 | 0.559 | 0.577 | 0.604 | 0.822 | 0.7 | 0.822 | 0.853 | 0.914 | 0.959 | 0.974 | 0.898 | 0.881 | 0.845 | 1.12 | 0.553 | 0.527 | 0.493 | 0.467 | 0.513
NCI-H1437 | 0.625 | 0.663 | 0.57 | 0.485 | 0.492 | 0.482 | 0.974 | 1.21 | 1.13 | 1.1 | 1.11 | 1.12 | 1.1 | 0.932 | 0.542 | 0.411 | 0.421 | 0.523 | 0.456
LU99A | 0.274 | 0.291 | 0.251 | 1.29 | 0.995 | 0.732 | 0.333 | 0.387 | 0.389 | 0.341 | 0.355 | 0.272 | 0.246 | 0.265 | 0.338 | 0.36 | 0.321 | 0.311 | 0.294
HCC-827 | 0.655 | 0.62 | 0.404 | 1.09 | 1.02 | 0.978 | 0.213 | 0.189 | 0.245 | 0.316 | 0.235 | 0.589 | 0.59 | 0.373 | 1.01 | 1.15 | 1.05 | 0.79 | 0.896
BEN | 1.09 | 1.21 | 1.01 | 0.942 | 0.669 | 0.418 | 0.627 | 0.76 | 0.789 | 0.798 | 0.628 | 0.412 | 1.13 | 0.281 | 0.54 | 0.581 | 0.55 | 0.547 | 0.576
NCI-H23 | 0.314 | 0.318 | 0.241 | 1.1 | 0.896 | 0.516 | 0.191 | 0.249 | 0.219 | 0.274 | 0.277 | 0.231 | 0.207 | 0.201 | 0.436 | 0.511 | 0.557 | 0.489 | 0.424
201T | 0.828 | 0.87 | 0.85 | 1.09 | 1.17 | 1.11 | 0.599 | 0.657 | 0.625 | 0.656 | 0.601 | 1.04 | 1.03 | 1.08 | 0.664 | 0.655 | 0.68 | 0.734 | 0.687
NCI-H460 | 0.396 | 0.509 | 0.526 | 1.05 | 1.08 | 0.608 | 0.773 | 0.684 | 0.633 | 0.623 | 0.643 | 0.0325 | 0.0315 | 0.0216 | 0.406 | 0.409 | 0.343 | 0.382 | 0.203
